# According to patent US20120034608A1, “MICRORNA AS A BIOMARKER OF PANCREATIC ISLET BETA-CELL ENGAGEMENT” (Merck Sharp & Dohme Corp., priority 2009, published 2012):
# What was measured:
# [1] = test system: INS-1 832/3 cells; assay: miRNA expression profiling of GLP-1 treated INS-1 832/3 cells (SYBR green qPCR); type: cell-based, rat; conditions: 50 nM GLP-1 for 24 hours, 16 mM glucose
# Experimental: Glucagon like peptide-1 (GLP-1) exerts pleiotropic effects on pancreatic β-cell function. GLP-1 potentiates glucose-dependent insulin secretion (GDIS) in pancreatic β-cells. Chronic administration of GLP-1 also promotes insulin synthesis as well as β-cell proliferation and neogenesis, at least in animal models. The detailed underlying mechanism remains to be fully understood. […] The expression levels of 250 microRNAs in INS-1 832/3 cell cultured in the presence or absence of 50 nM GLP-1 for 24 hours were compared using quantitative reverse transcription polymerase chain reaction (RT-PCR) method.
# For GLP-1 treatment, GLP-1 (7-37) amide (ABCHEM) was added in the media in the presence of 16 mM glucose for 24 hours.
# For microRNA profiling, total RNA was extracted from INS-1 832/3 cells with TRIZOL reagent (Invitrogen, Carlsbad, Calif.). A total of 250 miRNA species were determined by SYBR green quantitative PCR (qPCR) method at Rossetta Inpharmatics (Seattle, Wash.). Quantitative PCR is a method used to detect relative or absolute gene expression level. All qPCR involves the use of fluorescence to detect the threshold cycle (Ct) during PCR when the level of fluorescence gives signal over the background and is in the linear portion of the amplified curve. […] In this example, the Ct value data was calculated into copy number per 10 pg total RNA using the standard curve method. […]
# [2] = test system: INS-1 832/3 cells; assay: TAQMAN real-time quantitative RT-PCR of miRNA expression in INS-1 832/3 cells; type: cell-based, rat
# Experimental: INS-1 832/3 and 832/13 cells were maintained in RPMI 1640 with 10% FBS and 11 mM glucose. For GLP-1 treatment, GLP-1 (7-37) amide (ABCHEM) was added in the media in the presence of 16 mM glucose for 24 hours. Total RNA was extracted with TRIZOL as in Example 1. Rat islet isolation and treatment was as follows. Pancreatic islets of Langerhans were isolated from the pancreas of normal Sprague-Dawley rats (Charles River, Ind.) by collagenase digestion and discontinuous Ficoll gradient separation (15). Islets were cultured for 2 hours in RPMI 1640 medium with 11 mM glucose for recovery from the isolation process. Then 100-200 islets were treated with 50 nM GLP-1 in the media with 11 mM glucose for 24 hours. RNA was extracted with TRIZOL as in Example 1 for quantification of microRNA species.
# Fluorogenic TAQMAN detector probes specific for miR-132 (Cat# TM457), miR-212 (Cat# TM515), miR-375 (Cat#TM564), and miR-217 (Cat#1133) were purchased from Applied Biosystems (Foster City, Calif.). The TAQMAN RT-PCR reactions were performed according to the manufacturer's instructions.
# Relative miRNA levels for the miRNAs of interest were determined by real-time reverse transcription reaction using the ABI PRISM 7900 Sequence Detection System from Applied Biosystems (Foster City, Calif.) according to the manufacturer's protocol. Briefly, 10 ng of total RNA was mixed with 1 U MultiScribe Reverse Transcriptase, 0.25 U RNase Inhibitor, 3 μL hairpin-looped miRNA-specific RT primer, 1 mM dNTPs and 1× Reverse Transcription Buffer in a total volume of 15 μL. The mixture was incubated at 16° C. for 30 minutes, 42° C. for another 30 minutes, and the reaction was stopped by heating to 85° C. for 5 minutes. Real time PCR reaction was set up in 20 μL volume with 1.33 μL first strand cDNA, 1× TAQMAN MicroRNA Assay Mix and 1× TAQMAN Universal PCR Master Mix. After activation of the AMPLITAQ Gold DNA polymerase at 95° C. for 10 minutes, 40 cycles of two-step PCR were run (95° C. for 15 seconds and 60° C. for 60 seconds). Data were collected and analyzed with SDS v.2.2.2 software (Applied Biosystems). 4.5S RNA or U6 probe (Applied Biosystems) was used as a reference to determine the relative abundance of each miRNA in different samples. TAQMAN RT-PCR was performed according the manufacturer's instructions.
# The absolute miRNA levels were determined by reverse transcription reactions in GeneAmp PCR system 9700 followed by amplification using the ABI PRISM 7900HT Sequence Detection System from Applied Biosystems (Foster City, Calif.) through 40 cycles. 4.5S RNA (H) probe (Cat#TM1716) or U6 (Cat#TM1973) was used as reference to determine the relative abundance of each miRNA in different samples. The induction of miR-132 and miR-212 expression by GLP-1 started around 4 hour post-GLP-1 treatment, peaked at 24 hours and was sustained up to 48 hours (FIG. 2).
# [3] = test system: C57/Bl6 mice; assay: plasma miRNA levels in lean mice after a single injection; type: in vivo, mouse; conditions: C57/Bl6 mice (FIG. 5 legend)
# Experimental: The plasma levels of miR-132 and miR-212 were measured in lean mice treated with an oxyntomodulin (OXM) derivative (a long-acting GLP-1 receptor agonist disclosed in Published International Application No. WO2007/100535) before and then 24-hours and 48-hours after a single injection of the OXM derivative. Groups of 16 weeks old mice were dosed with 30 mpk OXM derivative (s.c.) or vehicle (3% mannitol, 75 mM NaCl, 20 mM sodium acetate, pH 5) and approximately 50 μL blood each were collected into EDTA tubes before and 24 hours and 48 hours post-dosing. All the blood samples were immediately placed on ice and plasma were prepared within one hour and stored at −80° C. RNA extraction and TAQMAN RT-PCR analysis were as described in Example 3. 50 μL aliquots of the plasma samples were thawed on ice and 2× Denaturing Solution (Ambion) was added. To allow for normalization for sample variations, three C. elegans miRNAs, cel-miR39, cel-miR54, and cel-miR-238, were added at a final concentration of 20, 200, and 2000 fM (sequence information according to miRBase). miR132, miR-212, and miR-375 expression levels were normalized to spiked-in cel-miR39.
# [4] = 50 nM GLP-1, 50 nM Exendin-4, 5 μM IBMX, 1 μM Foskolin (FIG. 6A)
substance,measurement,setting,value
GLP-1 (7-37) amide,"expression of miR-375, miR-9 and miR-124a",[1],no significant changes
same,miR-132 expression,[2]; [4],significantly increased
same,miR-212 expression,[2]; [4],significantly increased
same,miR-375 expression,[2]; [4],remained unchanged
same,induction of miR-132 and miR-212 expression sustained up to,[2]; 50 nM GLP-1 time course,up to 48 hours
same,peak of induction of miR-132 and miR-212 expression,[2]; 50 nM GLP-1 time course,24 h
same,"start of induction of miR-132 and miR-212 expression, time post-GLP-1 treatment",[2]; 50 nM GLP-1 time course,around 4 hour
same,induction of miR-132 and miR-212 (subsequent TAQMAN analyses),[2]; GLP-1 treatment,confirmed the induction
same,induction of miR-217 (subsequent TAQMAN analyses),[2]; GLP-1 treatment,not miR-217
same,plasma levels of miR-132,[3],increased
same,plasma levels of miR-212,[3],increased
